Measurements as given in PMC4721062, “Oxadiazole-2-oxides may have other functional targets, in addition to SjTGR, through which they cause mortality in Schistosoma japonicum” (Parasites & Vectors, 2016).
Like-named read-outs stand apart in the source and are kept apart here.

Columns and labels:
recombinant SjTGR = molecular target: T1, recombinant SjTGR (Schistosoma japonicum, UniProt B5THG7); experiment: Inhibition of TrxR activity of recombinant SjTGR (DTNB assay); type: biochemical; conditions: 50 nM SjTGR, 1 mM NADPH, 15 min preincubation, DTNB reduction; for IC50: read-out: IC50 of SjTGR
T1 sequence (B5THG7 1-596): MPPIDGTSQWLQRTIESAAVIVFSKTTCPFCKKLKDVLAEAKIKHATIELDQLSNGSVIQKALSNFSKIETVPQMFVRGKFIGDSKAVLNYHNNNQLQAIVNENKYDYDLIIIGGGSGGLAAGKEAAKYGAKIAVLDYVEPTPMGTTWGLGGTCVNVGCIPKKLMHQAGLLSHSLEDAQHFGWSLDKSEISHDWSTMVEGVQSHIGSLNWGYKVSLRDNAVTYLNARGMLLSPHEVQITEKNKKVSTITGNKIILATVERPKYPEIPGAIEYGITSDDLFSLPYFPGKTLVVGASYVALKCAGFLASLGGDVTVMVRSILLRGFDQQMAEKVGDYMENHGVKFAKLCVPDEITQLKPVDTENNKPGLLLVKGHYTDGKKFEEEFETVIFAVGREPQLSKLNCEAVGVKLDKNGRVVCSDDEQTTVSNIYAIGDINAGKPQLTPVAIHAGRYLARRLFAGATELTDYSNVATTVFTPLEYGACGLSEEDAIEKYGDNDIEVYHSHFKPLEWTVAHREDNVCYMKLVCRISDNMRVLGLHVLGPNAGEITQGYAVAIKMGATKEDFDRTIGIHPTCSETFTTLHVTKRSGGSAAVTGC
Protocol: The purified recombinant SjTGR proteins were produced according to the method described by Song et al.. The inhibition of TrxR activity by the recombinant SjTGR was performed as reported by Rai et al.. Briefly, 50 nM SjTGR and 1 mM NADPH were incubated with different concentrations of oxadiazole-2-oxides (2, 4, 6, 10, 20 μM) for 15 min at room temperature. Then, potassium phosphate buffer (pH 7.4) containing 10 mM EDTA, 100 μM NADPH, and 3 mM DTNB was added to start the reaction. The increase of absorbance at 412 nm was monitored during the first 2 min. All assays were done in triplicate.
50 nM SjTGR and 1 mM NADPH were incubated with different concentrations of oxadiazole-2-oxides (2, 4, 6, 10, 20 μM) for 15 min at room temperature. Then, potassium phosphate buffer (pH 7.4) containing 10 mM EDTA, 100 μM NADPH, 3 mM DTNB was added to start the reaction. The increase in absorbance at 412 nm was monitored during the first 2 min. All assays were done in triplicate. Results shown are the mean ± SD (n = 3)

juvenile S. japonicum = experiment: microbe, parasite or virus in culture; type: cell-based
Protocol: Infected Oncomelania hupensis, provided by the Department of Snail Biology, Jiangsu Institute of Parasitic Diseases, were incubated at 25–28 °C, under illumination, for 2 h to hatch S. japonicum cercariae. The cercariae were collected from the water surface with clean cover glass and placed into a centrifuge tube using pre cooled RPMI 1640. Centrifugation was performed for 1 min at 1500 rpm, and then the steps above were repeated. After centrifugation, the supernatant solution was removed. The cercariae at the bottom were washed twice and resuspended with RPMI 1640. Approximately 20–30 cercariae (1 mL of the resuspension medium) were added to one well in a 24-well culture plate. They were incubated overnight at 37 °C with 5 % CO2. The survival rates and number of tails shed were observed under an inverted microscope. Cercariae that had shed their tails were used as juvenile S. japonicum.
20–30 juvenile worms were transferred into each well of a 24-well culture plate, containing 2 mL RPMI 1640 medium, 20 mM HEPES, 100 IU/mL penicillin, […] streptomycin and 10 % fetal bovine serum. Then, oxadiazole-2-oxides (2, 5, 10, and 50 μM), diluted with the RPMI 1640 medium, were added to their allocated wells. The worms in the negative control wells were treated with equal volumes of RPMI 1640 or DMSO and worms treated with AS were observed as positive controls. The juvenile worms’ survival rates were observed under an inverted phase contrast microscope (Leica, Wetzlar, Germany) at 24, 48 and 72 h. Parasite death was defined as an unclear internal structure of the juvenile worms, with incomplete tegument and contents overflowing radially, or unclear internal structure with complete tegument, but having no motor activity during 1 min of continuous observation. All assays were repeated three times.
^b Data collected by visual examination of worm movement and shape; % D = The number of worms dead / The total number of worms observed, and worms dead judged by unclear internal structure of juvenile worms with uncompleted tegument, and contents overflowing radially, or unclear internal structure with complete tegument, but having no motor activity during 1 min of continuous observation. The data presented are the average of three independent experiments.

adult S. japonicum = experiment: microbe, parasite or virus in culture; type: cell-based; conditions: for killing at 25 µM / killing at 50 µM / killing at 100 µM / Killing activity 24hr / Killing activity 48hr / Killing activity 72hr: adult worms
Description: ICR mice (20–22 g), were obtained from the Shanghai Sub-Center of Experimental Animals, Chinese Academy of Sciences. They were maintained at the Department of Experimental Animals, Jiangsu Institute of Parasitic Diseases. To infect each mouse, its abdominal skin was exposed to 50 S. japonica cercariae. All of the mice were executed to collect S. japonica adult worms, through portal vein perfusion, 35 days post-infection. The adult S. japonica collected were washed with RPMI 1640 medium and then kept in RPMI 1640 medium (pH 7.5) with HEPES 20 mM, penicillin (100 IU/mL), streptomycin ([…]) and 10 % fetal bovine serum. Then, two pairs of adult worms were transferred into each well of a 24-well culture plate, with 2 mL of the same medium. The worms were cultured at 37 °C in a humid atmosphere with 5 % CO2.
Adult worms were cultured in a 24-well culture plate for 30–60 min at 37 °C, in a humid atmosphere with 5 % CO2. Then, oxadiazole-2-oxides at different concentrations (10, 25, 50, 100 μM) were added. Equal volumes of RPMI 1640 or DMSO were applied as negative controls, while PZQ was applied as a positive control. The adult worm mobility and parasite survival rates were monitored using an inverted phase contrast microscope, at 24, 48 and 72 h. Parasite death was defined as there being no motor activity during 2 min of continuous observation, and morphological and tegumental alterations. All assays were repeated three times.
^b Data collected by visual examination of worm movement and shape; n.e. […] The data presented are the average of three independent experiments.

[1] = Schistosoma japonicum, juvenile worms, 24 h, read-out: Killing activity 24hr
[2] = Schistosoma japonicum, juvenile worms, 48 h, read-out: Killing activity 48hr
[3] = Schistosoma japonicum, juvenile worms, 72 h, read-out: Killing activity 72hr
[4] = Schistosoma japonicum, 25 μM, 72 h, read-out: Killing activity 72hr
[5] = Schistosoma japonicum, 50 μM, 72 h, read-out: Killing activity 72hr
[6] = Schistosoma japonicum, 24 h, read-out: Killing activity 24hr
[7] = Schistosoma japonicum, 48 h, read-out: Killing activity 48hr
[8] = Schistosoma japonicum, 72 h, read-out: Killing activity 72hr

Compound	IC50 (recombinant SjTGR) [µM]	killing at 2 µM (juvenile S. japonicum; [1]) [%]	killing at 2 µM (juvenile S. japonicum; [2]) [%]	killing at 2 µM (juvenile S. japonicum; [3]) [%]	killing at 5 µM (juvenile S. japonicum; [1]) [%]	killing at 5 µM (juvenile S. japonicum; [2]) [%]	killing at 5 µM (juvenile S. japonicum; [3]) [%]	killing at 50 µM (juvenile S. japonicum; [1]) [%]	killing at 50 µM (juvenile S. japonicum; [2]) [%]	killing at 50 µM (juvenile S. japonicum; [3]) [%]	Killing activity 48hr (juvenile S. japonicum; juvenile worms, 10 μM, 48 h) [%D]	Killing activity 72hr (juvenile S. japonicum; juvenile worms, 10 μM, 72 h) [%D]	killing at 25 µM (adult S. japonicum; [4]) [%]	killing at 50 µM (adult S. japonicum; [5]) [%]	killing at 100 µM (adult S. japonicum; [6]) [%]	killing at 100 µM (adult S. japonicum; [7]) [%]	killing at 100 µM (adult S. japonicum; [8]) [%]	Killing activity 24hr (adult S. japonicum; 10 μM, 24 h)	Killing activity 48hr (adult S. japonicum; 10 μM, 48 h)	Killing activity 72hr (adult S. japonicum; 10 μM, 72 h) [%D]	other results
N#Cc1c(-c2ccc(CBr)cc2)no[n+]1[O-] [Compound 22]	9.7	18.1	30.1	41	18.6	30.2	41.8	100	100	100	41.4	69.0	100	100	100	100	100	44.4%D	66.7%D	88.9	mortality at 50 µM (juvenile S. japonicum; Schistosoma japonicum, 24 h, read-out: Mortality of juvenile worms): > 70%; mortality at 25 µM (adult S. japonicum; Schistosoma japonicum, 24 h, read-out: Mortality of adult worms): > 75%; killing at 25 µM (adult S. japonicum; Schistosoma japonicum, 25 μM, 24 h, read-out: Killing activity 24hr): 90%; killing at 25 µM (adult S. japonicum; Schistosoma japonicum, 25 μM, 48 h, read-out: Killing activity 48hr): 100%; killing at 50 µM (adult S. japonicum; Schistosoma japonicum, 50 μM, 24 h, read-out: Killing activity 24hr): 90.9%; killing at 50 µM (adult S. japonicum; Schistosoma japonicum, 50 μM, 48 h, read-out: Killing activity 48hr): 100%
N#Cc1c(-c2ccc(COc3ccc4ccccc4c3C=O)cc2)no[n+]1[O-] [Compound 27]	> 20	9.1	9.1	10.6	14.9	25.7	27	40	44.4	46.7	24.4	30.0	75	87.5	22.2	33.3	77.8	n.e.	n.e.	62.5	IC50 of SjTGR (recombinant SjTGR): did not inhibit; Killing activity 24hr (juvenile S. japonicum; juvenile worms, 10 μM, 24 h): 15.6%D; Killing activity 24hr (adult S. japonicum; 25 μM, 24 h): sluggish; Killing activity 48hr (adult S. japonicum; 25 μM, 48 h): sluggish; Killing activity 24hr (adult S. japonicum; 50 μM, 24 h): sluggish; Killing activity 48hr (adult S. japonicum; 50 μM, 48 h): sluggish
